Laboratory results published in paper PMC4642672, “The GH5 1,4-β-mannanase from Bifidobacterium animalis subsp. lactis Bl-04 possesses a low-affinity mannan-binding module and highlights the diversity of mannanolytic enzymes” (BMC Biochemistry, 2015).

What was measured:
[1] = molecular target: T1, BlMan5_8 (Bifidobacterium animalis, UniProt B8DWU0); assay: surface plasmon resonance, steady state, enzyme immobilised by amine coupling; format: binding; details: 10 mM MES, 150 mM NaCl, 0.005% P20, pH 6.0, 25 °C, one-site fit
T1 construct: gene BLA_0648; mature enzyme without signal peptide (residues 1-29 removed), GH5_8 + C-terminal CBM10; N-terminal His6 tag cleaved by thrombin; E. coli BL21(DE3)
T1 sequence (B8DWU0 entry or part of it): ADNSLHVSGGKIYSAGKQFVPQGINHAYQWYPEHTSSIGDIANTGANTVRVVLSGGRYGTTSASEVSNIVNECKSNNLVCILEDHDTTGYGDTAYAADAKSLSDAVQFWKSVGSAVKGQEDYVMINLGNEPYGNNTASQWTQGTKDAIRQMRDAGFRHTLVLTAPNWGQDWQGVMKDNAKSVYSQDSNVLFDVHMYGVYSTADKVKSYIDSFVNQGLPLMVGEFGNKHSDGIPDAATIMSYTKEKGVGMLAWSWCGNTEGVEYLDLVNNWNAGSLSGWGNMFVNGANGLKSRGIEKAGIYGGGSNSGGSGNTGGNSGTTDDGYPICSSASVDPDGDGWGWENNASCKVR
From the text: surface plasmon resonance, steady state, enzyme immobilised by amine coupling on BlMan5_8

[2] = molecular target: T2, BlMan5_8-ΔCBM10 (Bifidobacterium animalis, UniProt B8DWU0); assay: as above; format: binding; details: 10 mM MES, 150 mM NaCl, 0.005% P20, pH 6.0, 25 °C; one-site fit; catalytic module
T2 construct: gene BLA_0648; catalytic GH5_8 module, C-terminal CBM10 deleted by stop codon at Ser338 in linker; signal peptide (1-29) removed; N-terminal His6 tag cleaved by thrombin; E. coli BL21(DE3)
T2 sequence (B8DWU0 entry or part of it, stated change not applied): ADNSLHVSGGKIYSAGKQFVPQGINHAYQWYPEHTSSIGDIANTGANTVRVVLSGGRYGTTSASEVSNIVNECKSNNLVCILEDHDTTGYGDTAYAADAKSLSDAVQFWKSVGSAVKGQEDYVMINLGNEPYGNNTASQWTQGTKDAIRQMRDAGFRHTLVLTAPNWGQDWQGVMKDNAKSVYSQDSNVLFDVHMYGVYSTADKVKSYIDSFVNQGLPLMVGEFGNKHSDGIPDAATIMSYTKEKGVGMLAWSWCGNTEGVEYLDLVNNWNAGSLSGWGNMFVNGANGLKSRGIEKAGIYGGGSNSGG
From the text: surface plasmon resonance, steady state, enzyme immobilised by amine coupling on BlMan5_8-ΔCBM10

[3] = catalytic module and CBM10 both bind

Structure (SMILES)	Kd ([1]; CBM10 site suggested) [µM]	Kd [2] [µM]	Kd [1, 3] [µM]
OC[C@H]1O[C@@H](O[C@H]2[C@H](O)[C@H](O)[C@H](O[C@H]3[C@H](O)[C@H](O)[C@H](O[C@H]4[C@H](O)[C@H](O)C(O)O[C@@H]4CO)O[C@@H]3CO)O[C@@H]2CO)[C@@H](O)[C@@H](O)[C@@H]1O (some centres unmarked) [M4, mannotetraose]	5100 ± 800		
OC[C@H]1O[C@@H](O[C@H]2[C@H](O)[C@H](O)[C@H](O[C@H]3[C@H](O)[C@H](O)[C@H](O[C@H]4[C@H](O)[C@H](O)[C@H](O[C@H]5[C@H](O)[C@H](O)[C@H](O[C@H]6[C@H](O)[C@H](O)C(O)O[C@@H]6CO)O[C@@H]5CO)O[C@@H]4CO)O[C@@H]3CO)O[C@@H]2CO)[C@@H](O)[C@@H](O)[C@@H]1O (some centres unmarked) [M6, mannohexaose]		240 ± 420	580 ± 50
OC[C@H]1O[C@@H](O[C@H]2[C@H](O)[C@H](O)[C@H](O[C@H]3[C@H](O)[C@H](O)[C@H](O[C@H]4[C@H](O)[C@H](O)[C@H](O[C@H]5[C@H](O)[C@H](O)C(O)O[C@@H]5CO)O[C@@H]4CO)O[C@@H]3CO)O[C@@H]2CO)[C@@H](O)[C@@H](O)[C@@H]1O (some centres unmarked) [M5, mannopentaose]		1500 ± 300	3700 ± 300
